Tests used:
CaCo-2 cells = assay: BrdU incorporation with or without Hrs-EGFP transfection; type: cell-based; settings: serum starved 0.1% FCS, mean ± SD of three independent experiments
Description: We used the lipofectamine kit (Invitrogen, San Giuliano Milanese, Italy) according to the manufacturer's instructions to transfect all plasmids (Rab5-EGFP, Rab7-EGFP, Hrs-EGFP and Hrs-Ha). Briefly, CaCo-2 cells seeded on coverslips for 48 h were transfected with the plasmids for 16 h. The next day, transfected cells were pulsed and chased as described below or stained for Bromodeoxyuridine (BrdU) with a monoclonal antibody (Sigma-Aldrich, Milan, Italy) and total nuclei were identified by Hoechst staining. BrdU incorporation was performed as described elsewhere, briefly, CaCo-2 cells seeded on coverslips were transfected with Hrs-EGFP and serum starved in DMEM 0.1% foetal calf serum, antibiotics and glutamine for 30–48 h followed by 24 h treatment with gliadin peptides and/or growth factors. BrdU ([…], Boehringer) was added for one hour before fixing the samples. The cells fixed with paraformaldehyde and permeabilised with triton, were stained for BrdU as described and observed at the miscroscope (Axiophot microscope, Carl Zeiss MicroImaging, Inc.). Greater than 100 HRS-EGFP positive cells in several fields were evaluated for BrdU incorporation in each sample. The number of HRS-EGFP/BrdU positive cells was expressed as a proportion of the total Hoechst positive nuclei.

Hrs = target: T1, Hrs (Homo sapiens, UniProt O14964); assay: Subcellular fractionation and immunoblotting of endogenous Hrs; type: cell-based; settings: CaCo-2 cells, western blot, three independent experiments
T1 construct: to quantify the amount of endogenous Hrs present in each compartment; endogenous in cells; host or cells: CaCo-2
T1 sequence (O14964 whole entry): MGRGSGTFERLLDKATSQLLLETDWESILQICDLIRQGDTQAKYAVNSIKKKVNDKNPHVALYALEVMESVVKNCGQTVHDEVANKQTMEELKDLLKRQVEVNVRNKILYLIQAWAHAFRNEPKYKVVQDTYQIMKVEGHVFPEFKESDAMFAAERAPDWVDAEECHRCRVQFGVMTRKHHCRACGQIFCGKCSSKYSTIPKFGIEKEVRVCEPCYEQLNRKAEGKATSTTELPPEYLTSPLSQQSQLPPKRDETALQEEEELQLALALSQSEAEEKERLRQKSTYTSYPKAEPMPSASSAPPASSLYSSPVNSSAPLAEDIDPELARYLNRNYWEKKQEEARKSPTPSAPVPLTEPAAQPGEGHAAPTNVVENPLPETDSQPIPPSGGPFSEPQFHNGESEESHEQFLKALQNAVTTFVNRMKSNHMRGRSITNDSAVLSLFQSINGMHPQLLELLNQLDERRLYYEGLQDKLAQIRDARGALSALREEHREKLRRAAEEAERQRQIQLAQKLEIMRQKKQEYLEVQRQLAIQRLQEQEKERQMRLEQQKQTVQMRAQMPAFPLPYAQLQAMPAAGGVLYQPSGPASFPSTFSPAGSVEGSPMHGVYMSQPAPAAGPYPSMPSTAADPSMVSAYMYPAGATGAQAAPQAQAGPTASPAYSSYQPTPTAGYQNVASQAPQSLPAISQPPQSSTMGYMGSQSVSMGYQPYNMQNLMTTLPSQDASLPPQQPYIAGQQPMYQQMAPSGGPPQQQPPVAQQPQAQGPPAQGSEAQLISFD
Description: Near-confluent Caco2 cells in a 90-mm dish were incubated with EGF and P31-43 at various times, after homogenization (10 mM Tris-HCl [pH 7.4], 1 mM EDTA, and the mixture of phosphatase and protease inhibitors) the nuclear fraction was eliminated by centrifugation. The soluble cytosolic and the membrane fraction were obtained by ultracentrifugation. Electrophoresis and immunoblotting were performed as described elsewhere. Briefly the proteins of the soluble cytosolic and the membrane fractions were separated by SDS-PAGE and incubated with anti-Hrs mouse monoclonal antibody (Alexis, Vinci-Biochem, Florence, Italy) or anti-EGFR rabbit polyclonal antibody (Cell Signaling Celbio, Milan Italy) or anti-tubulin mouse monoclonal antibody (SIGMA-Aldrich, Milan, Italy). Densitometric analysis was performed as before.

“EGF: growth factor used at 100 nanograms/ml as positive control” was tested, and the “BrdU incorporation (BrdU incorporating cells as percent of total cells)” value (CaCo-2 cells; CaCo-2 cells not expressing Hrs, 24 h treatment (peptides 70 micrograms/ml, EGF 100 nanograms/ml)) was 68.99%±7, the “BrdU incorporation (BrdU incorporating cells as percent of total cells)” value (CaCo-2 cells; Hrs-EGFP-transfected (Hrs-expressing) CaCo-2 cells, 24 h treatment) was 66.25%±9.53% and the “Amount of Hrs in the membrane fraction” value (Hrs; normalised to EGFR) was “did not affect Hrs concentration in either compartment”. For the same substance, the “Amount of Hrs in the cytosolic fraction” value (Hrs; normalised to tubulin) was “did not affect Hrs concentration in either compartment”.

Reference: PMC2923621, “Gliadin Peptide P31-43 Localises to Endocytic Vesicles and Interferes with Their Maturation” (PLoS ONE, 2010)
